Laboratory results from ChEMBL document CHEMBL3627620, “Design, synthesis, and biological evaluation of aminopyrazine derivatives as inhibitors of mitogen-activated protein kinase-activated protein kinase 2 (MK-2)” (Bioorg Med Chem Lett, 2015).

Legend:
[1] = Antiinflammatory activity in human THP1 cells assessed as inhibition of LPS-stimulated TNFalpha production; conditions: THP-1
[2] = Antiinflammatory activity in human THP1 cells assessed as inhibition of LPS-stimulated TNFalpha production at […] uM; type: functional; conditions: THP-1
[3] = Ratio of IC50 for human THP1 cells assessed as inhibition of LPS-stimulated TNFalpha production to IC50 for MK2 (unknown origin); set-up: species or system THP-1
[4] = Antiinflammatory activity in human THP1 cells assessed as inhibition of LPS-stimulated TNFalpha production at 50 uM; type: functional; conditions: THP-1
[5] = target: MAP kinase-activated protein kinase 2 (Homo sapiens) (UniProt P49137); assay: Inhibition of MK2 (unknown origin) at 50 uM by scintillation proximity assay
MAP kinase-activated protein kinase 2 (Homo sapiens), sequence (P49137 whole entry, looked up): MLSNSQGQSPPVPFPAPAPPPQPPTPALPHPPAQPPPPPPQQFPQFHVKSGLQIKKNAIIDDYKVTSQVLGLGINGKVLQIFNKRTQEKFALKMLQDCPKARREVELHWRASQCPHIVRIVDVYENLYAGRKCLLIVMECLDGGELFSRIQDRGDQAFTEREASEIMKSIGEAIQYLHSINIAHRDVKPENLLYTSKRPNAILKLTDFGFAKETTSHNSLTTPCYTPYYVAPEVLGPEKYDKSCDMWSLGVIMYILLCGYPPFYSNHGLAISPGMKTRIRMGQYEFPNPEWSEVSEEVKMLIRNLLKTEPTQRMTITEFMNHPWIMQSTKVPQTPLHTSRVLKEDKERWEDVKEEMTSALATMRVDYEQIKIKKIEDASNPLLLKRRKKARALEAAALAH

SMILES	IC50 [1] [µM]	other results
Cc1ccc(C(=O)/N=C(\NCc2nc(C3CC3)cnc2N)Nc2ccc3[nH]c(=O)oc3c2)cc1	3.9	
Nc1ncc(C2CC2)nc1CNC(=O)Nc1ccc2[nH]c(=O)oc2c1	> 12.5	inhibition at 12.5 µM [2]: 45%
Nc1ncc(Cl)nc1CNC(=S)Nc1ccccc1	7.9	Ratio IC50 [3]: 4
CCOC(=O)/N=C(\NCc1nc(C2CC2)cnc1N)Nc1ccc2[nH]c(=O)oc2c1	13	
CO/N=C(\NCc1nc(Cl)cnc1N)Nc1ccc(NC(=O)OC(C)(C)C)cc1	> 50	inhibition at 50 µM [4]: 40%
Nc1ncc(Cl)nc1-c1nc(N2CCc3ccccc32)no1		inhibition [5]: 20%
CCCc1cnc(N)c(CN/C(=N\C#N)Nc2ccc3[nH]c(=O)oc3c2)n1	42	
CCCc1cnc(N)c(CNC(=O)Nc2ccc3[nH]c(=O)oc3c2)n1	> 12.5	inhibition at 12.5 µM [2]: 34%
Nc1ncc(Cl)nc1CNc1nc2ccccc2s1		inhibition [5]: 36%

More lines, main results first:

IC50 [1] [µM]	SMILES	other results
10.2	CC(C)(C)OC(=O)Nc1ccc(N/C(=N/C#N)NCc2nc(C3CC3)cnc2N)cc1	
8.8	Nc1ncc(C2CC2)nc1CN/C(=N\C(=O)c1ccc(Cl)cc1)Nc1ccc2[nH]c(=O)oc2c1	
